ChEMBL document CHEMBL1201862, “PubChem BioAssay data set” (2004)
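These data come from cells grown in 96-well plates and exposed to compound for 48 hours at five concentrations. GI50 = concentration required for 50% inhibition of growth.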 Calls of active or inactive are those of the source. Cut-off read from the data, not from the text of the source: active = GI50 up to about 1.1 µM and inactive = higher.

Columns and labels:
Test in all cases: NCI-60 cell line screen, 48 h
[1] = test system: 786-0
[2] = test system: A498
[3] = test system: A549
[4] = test system: ACHN
[5] = test system: BT-549
[6] = test system: CCRF-CEM
[7] = test system: COLO 205
[8] = test system: DLD-1
[9] = test system: DMS-114
[10] = test system: DMS-273
[11] = test system: DU-145
[12] = test system: EKVX
[13] = test system: HCC 2998
[14] = test system: HCT-116
[15] = test system: HCT-15
[16] = test system: HL-60
[17] = test system: HOP-18
[18] = test system: HOP-62
[19] = test system: HOP-92
[20] = test system: HT-29
[21] = test system: Hs-578T
[22] = test system: IGROV-1
[23] = test system: K562
[24] = test system: KM-20L2
[25] = test system: KM12
[26] = test system: LOX IMVI
[27] = test system: M14
[28] = test system: M19-MEL
[29] = test system: MCF7
[30] = test system: MDA-MB-231
[31] = test system: MDA-MB-435
[32] = test system: MDA-N
[33] = test system: MOLT-4
[34] = test system: Malme-3M
[35] = test system: NCI-H226
[36] = test system: NCI-H23
[37] = test system: NCI-H460
[38] = test system: NCI-H522
[39] = test system: NCI/ADR-RES
[40] = test system: OVCAR-3
[41] = test system: OVCAR-4
[42] = test system: OVCAR-5
[43] = test system: OVCAR-8
[44] = test system: PC-3
[45] = test system: RPMI-8226
[46] = test system: RXF 393
[47] = test system: SF-268
[48] = test system: SF-539
[49] = test system: SK-MEL-2
[50] = test system: SK-MEL-5
[51] = test system: SK-OV-3
[52] = test system: SN12C
[53] = test system: SNB-19
[54] = test system: SNB-78
[55] = test system: SR
[56] = test system: SW-620
[57] = test system: T47D
[58] = test system: TK-10
[59] = test system: U-251
[60] = test system: UACC-257
[61] = test system: UACC-62
[62] = test system: UO-31
[63] = test system: XF498
[64] = test system: CAKI-1
[65] = test system: LXFL 529
[66] = test system: SF-295
[67] = test system: SK-MEL-28
[68] = test system: SNB-75

NC(=O)c1csc(C2OC(CO)C(O)C2O)n1 (stereo not given)
GI50 [1]: 21.8 µM (inactive) | GI50 [2]: 785 µM (inactive) | GI50 [3]: 102 µM (inactive) | GI50 [4]: 44.6 µM (inactive) | GI50 [5]: 885 µM (inactive) | GI50 [6]: 7.8 µM (inactive) | GI50 [7]: 7.45 µM (inactive) | GI50 [8]: 8.57 µM (inactive) | GI50 [9]: 61.1 µM (inactive) | GI50 [10]: 30.8 µM (inactive) | GI50 [11]: 179 µM (inactive) | GI50 [12]: 543 µM (inactive) | GI50 [13]: 467 µM (inactive) | GI50 [14]: 22.6 µM (inactive) | GI50 [15]: 4.14 µM | GI50 [16]: 8.95 µM (inactive) | GI50 [17]: 1170 µM (inactive) | GI50 [18]: 90.8 µM (inactive) | GI50 [19]: 115 µM (inactive) | GI50 [20]: 40.3 µM (inactive) | GI50 [21]: 44.7 µM (inactive) | GI50 [22]: 42.4 µM (inactive) | GI50 [23]: 4.26 µM (inactive) | GI50 [24]: 43.8 µM (inactive) | GI50 [25]: 48.4 µM (inactive) | GI50 [26]: 267 µM (inactive) | GI50 [27]: 6.84 µM (inactive) | GI50 [28]: 29 µM (inactive) | GI50 [29]: 31.4 µM (inactive) | GI50 [30]: 84.9 µM (inactive) | GI50 [31]: 57.9 µM (inactive) | GI50 [32]: 35.1 µM (inactive) | GI50 [33]: 5.56 µM (inactive) | GI50 [34]: 1640 µM (inactive) | GI50 [35]: 723 µM (inactive) | GI50 [36]: 60.1 µM (inactive) | GI50 [37]: 225 µM (inactive) | GI50 [38]: 50.1 µM (inactive) | GI50 [39]: 57 µM (inactive) | GI50 [40]: 19.6 µM (inactive) | GI50 [41]: 13.7 µM (inactive) | GI50 [42]: 436 µM (inactive) | GI50 [43]: 26.6 µM (inactive) | GI50 [44]: 4.9 µM (inactive) | GI50 [45]: 150 µM (inactive) | GI50 [46]: 126 µM (inactive) | GI50 [47]: 57.5 µM (inactive) | GI50 [48]: 20.3 µM (inactive) | GI50 [49]: 2340 µM (inactive) | GI50 [50]: 96.8 µM (inactive) | GI50 [51]: 61.8 µM (inactive) | GI50 [52]: 379 µM (inactive) | GI50 [53]: 38.3 µM (inactive) | GI50 [54]: 92.7 µM (inactive) | GI50 [55]: > 31.6 µM (inactive) | GI50 [56]: 13.8 µM (inactive) | GI50 [57]: 2790 µM (inactive) | GI50 [58]: 237 µM (inactive) | GI50 [59]: 8.39 µM (inactive) | GI50 [60]: 4400 µM (inactive) | GI50 [61]: 42.6 µM (inactive) | GI50 [62]: 53.2 µM (inactive) | GI50 [63]: 67.8 µM (inactive)

C[n+]1ccn2c3nc4ccccc4nc3c([O-])c(C#N)c21
GI50 [1]: > 48.5 µM (inactive) | GI50 [2]: > 100 µM (inactive) | GI50 [3]: > 29.5 µM (inactive) | GI50 [4]: > 100 µM (inactive) | GI50 [5]: > 100 µM (inactive) | GI50 [64]: > 100 µM (inactive) | GI50 [6]: > 100 µM (inactive) | GI50 [7]: > 100 µM (inactive) | GI50 [8]: < 0.01 µM (active) | GI50 [9]: > 100 µM (inactive) | GI50 [10]: > 100 µM (inactive) | GI50 [11]: > 100 µM (inactive) | GI50 [12]: > 100 µM (inactive) | GI50 [13]: > 10 µM (inactive) | GI50 [14]: > 100 µM (inactive) | GI50 [15]: > 10 µM | GI50 [16]: > 100 µM (inactive) | GI50 [17]: 84.7 µM (inactive) | GI50 [18]: > 10 µM (inactive) | GI50 [19]: > 100 µM (inactive) | GI50 [20]: > 100 µM (inactive) | GI50 [21]: > 100 µM (inactive) | GI50 [22]: > 31.4 µM (inactive) | GI50 [23]: > 100 µM (inactive) | GI50 [25]: > 10 µM (inactive) | GI50 [26]: > 100 µM (inactive) | GI50 [65]: > 100 µM (inactive) | GI50 [27]: > 100 µM (inactive) | GI50 [28]: < 0.01 µM (active) | GI50 [29]: 88.9 µM (inactive) | GI50 [30]: > 100 µM (inactive) | GI50 [31]: > 100 µM (inactive) | GI50 [32]: > 100 µM (inactive) | GI50 [33]: > 100 µM (inactive) | GI50 [34]: > 100 µM (inactive) | GI50 [35]: > 100 µM (inactive) | GI50 [36]: > 100 µM (inactive) | GI50 [37]: > 10 µM (inactive) | GI50 [38]: > 10 µM (inactive) | GI50 [39]: > 34.2 µM (inactive) | GI50 [40]: > 100 µM (inactive) | GI50 [41]: > 100 µM (inactive) | GI50 [42]: > 10 µM (inactive) | GI50 [43]: > 56.6 µM (inactive) | GI50 [44]: > 100 µM (inactive) | GI50 [45]: > 100 µM (inactive) | GI50 [46]: > 65.9 µM (inactive) | GI50 [47]: > 100 µM (inactive) | GI50 [66]: > 100 µM (inactive) | GI50 [48]: > 100 µM (inactive) | GI50 [67]: > 100 µM (inactive) | GI50 [49]: > 4.65 µM (inactive) | GI50 [50]: > 4.65 µM (inactive) | GI50 [51]: > 100 µM (inactive) | GI50 [52]: > 100 µM (inactive) | GI50 [53]: > 100 µM (inactive) | GI50 [68]: > 100 µM (inactive) | GI50 [54]: > 100 µM (inactive) | GI50 [55]: > 100 µM (inactive) | GI50 [56]: > 100 µM (inactive) | GI50 [57]: > 100 µM (inactive) | GI50 [58]: > 10 µM (inactive) | GI50 [59]: > 100 µM (inactive) | GI50 [60]: > 100 µM (inactive) | GI50 [61]: > 100 µM (inactive) | GI50 [62]: > 100 µM (inactive) | GI50 [63]: > 100 µM (inactive)
